This note sets out measurements from ChEMBL document CHEMBL1201862, “PubChem BioAssay data set” (2004).

Test systems include MCF7; SK-MEL-2; COLO 205; MDA-MB-231; NCI-H226; OVCAR-4; M14; CCRF-CEM; K562; HT-29; ACHN; MOLT-4; OVCAR-3; A498; SF-295; IGROV-1; HL-60; HCC 2998; SR; NCI-H522.
Common to all, as to experiment: NCI-60 cell line screen, 48 h

Molecules are shown by their SMILES.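 Method: 48-hour compound exposure of cells in 96-well plates, five concentrations, linear interpolation of endpoints. At the GI50, growth is halved.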 Activity calls are given as the source filed them. Cut-off read from the data, not from the text of the source: active = GI50 up to about 1.1 µM and inactive = higher.

Turning to `Cc1ccc(-c2cs/c(=N\c3ccccc3)n2NC(=O)c2ccncc2)cc1`, the GI50 was 33.3 µM (inactive) with MCF7; 28.5 µM (inactive) in the assay with SK-MEL-2; 29.8 µM (inactive) in the assay with COLO 205; 51.5 µM (inactive) in the assay with MDA-MB-231; 28.4 µM (inactive) with NCI-H226; 36.9 µM (inactive) with OVCAR-4. The GI50 with M14 is 33 µM (inactive); in the assay on CCRF-CEM, 36.6 µM (inactive); in the assay on K562, 15 µM (inactive); in the assay with HT-29, 21 µM (inactive); in the assay with ACHN, 35.3 µM (inactive); in the assay with MOLT-4, 26.4 µM (inactive). Moreover, the GI50 in the assay with OVCAR-3 is 35.6 µM (inactive); in the assay with A498, > 75.2 µM (inactive); in the assay on SF-295, 27.6 µM (inactive); in the assay with IGROV-1 it was 40.3 µM (inactive); in the assay on HL-60, 19.4 µM (inactive); in the assay on HCC 2998 it was 75.2 µM (inactive). In addition, the GI50 with SR is 34.8 µM (inactive).

For `CCOc1ccccc1-c1nc2c(s1)C(=O)c1ccccc1C2=O`, the GI50 with MCF7 is 12.2 µM (inactive); in the assay with SK-MEL-2 it was 15.7 µM (inactive); with COLO 205, 24.7 µM (inactive); with MDA-MB-231, 2.84 µM (inactive); in the assay with OVCAR-4 it was 9.68 µM (inactive); in the assay with M14, 15.7 µM (inactive). In addition, the GI50 with NCI-H522 was 11.8 µM (inactive); in the assay with K562 it was 4.61 µM (inactive); with ACHN it was 14.9 µM (inactive); in the assay on MOLT-4, 3.53 µM (inactive); with OVCAR-3, 2.25 µM (inactive); with A498, 15.9 µM (inactive). Besides, the GI50 in the assay on SF-295 is 12.6 µM (inactive); in the assay with IGROV-1, 12.2 µM (inactive); with HL-60 it was 1.92 µM (inactive); in the assay on HCC 2998, 14.5 µM (inactive); with SR it was 6.24 µM (inactive).

In the case of `COc1cccc2c1-c1c(OC)cccc1SS2`, the GI50 in the assay on MCF7 is 20.3 µM (inactive); in the assay on SK-MEL-2 it was 17.5 µM (inactive); in the assay with COLO 205, 20 µM (inactive); in the assay on MDA-MB-231 it was 23.7 µM (inactive); in the assay with NCI-H226, 16 µM (inactive); in the assay on OVCAR-4, 21.8 µM (inactive). The GI50 in the assay on M14 was 27 µM (inactive); with NCI-H522, 19.7 µM (inactive); in the assay on K562, 27.5 µM (inactive); in the assay with HT-29, 17.3 µM (inactive); in the assay with ACHN, 41.8 µM (inactive); with MOLT-4, 13.4 µM (inactive). Also, the GI50 was 16.3 µM (inactive) in the assay on OVCAR-3; 8.75 µM (inactive) in the assay with A498; 19.9 µM (inactive) with SF-295; 17.4 µM (inactive) in the assay with IGROV-1; 1.01 µM (active) with HL-60; 20.9 µM (inactive) in the assay on HCC 2998. For the same molecule, the GI50 in the assay with SR was 16.9 µM (inactive).

For `C=CCOc1ccc(C(=N/NC(=O)c2ccccc2)/N=N/c2ccc(C)cc2)cc1OC`, the GI50 in the assay with MCF7 was 35.1 µM (inactive); in the assay on SK-MEL-2, 23.2 µM (inactive); with COLO 205 it was 16.5 µM (inactive); with MDA-MB-231 it was 24.4 µM (inactive); with NCI-H226, 20.6 µM (inactive); in the assay on OVCAR-4, 37.9 µM (inactive). For the same molecule, the GI50 in the assay with M14 was 22.7 µM (inactive); in the assay on CCRF-CEM, 9.14 µM (inactive); in the assay with NCI-H522, 16.4 µM (inactive); in the assay with HT-29, 20.3 µM (inactive); in the assay with ACHN, 34.8 µM (inactive); in the assay with MOLT-4, 26.5 µM (inactive). Further, the GI50 in the assay with OVCAR-3 was 25.9 µM (inactive); in the assay with A498 it was 25.6 µM (inactive); in the assay on SF-295, 32 µM (inactive); in the assay on IGROV-1 it was 18.7 µM (inactive); in the assay with HL-60, 4.83 µM (inactive); in the assay with HCC 2998, 18.7 µM (inactive). In the assay with SR, the GI50 is 6.17 µM (inactive).

In the case of `CC(C)C1=CCC2C(=C1)CCC1C(C)(C(=O)O)CCCC21C` (stereo not drawn), the GI50 in the assay on MCF7 was > 100 µM (inactive); in the assay on SK-MEL-2, > 100 µM (inactive); with COLO 205, > 100 µM (inactive); with MDA-MB-231, > 100 µM (inactive); in the assay on NCI-H226 it was > 100 µM (inactive); in the assay with OVCAR-4 it was 56.8 µM (inactive). For the same molecule, the GI50 was > 100 µM (inactive) with M14; > 100 µM (inactive) in the assay on CCRF-CEM; > 100 µM (inactive) with NCI-H522; 78.5 µM (inactive) in the assay with HT-29; 94.8 µM (inactive) in the assay with ACHN; 63.1 µM (inactive) with MOLT-4. For the same molecule, the GI50 is > 100 µM (inactive) in the assay with OVCAR-3; > 100 µM (inactive) in the assay with A498; 97.7 µM (inactive) with SF-295; > 100 µM (inactive) in the assay on IGROV-1; 14.2 µM (inactive) in the assay on HL-60; > 100 µM (inactive) in the assay with HCC 2998. Further, the GI50 in the assay on SR was > 100 µM (inactive).

Regarding `CC(C)=CCC/C(C)=C/Cc1c2c(c3oc(-c4ccc(O)c(O)c4)c(O)c(=O)c3c1O)C=CC(C)(C)O2`, the GI50 in the assay on MCF7 was 2.79 µM (inactive); with SK-MEL-2, 6.58 µM (inactive); in the assay on COLO 205, 1.64 µM (inactive); in the assay with MDA-MB-231, 5.74 µM (inactive); with NCI-H226 it was 6.22 µM (inactive); in the assay with OVCAR-4, 2.25 µM (inactive). The GI50 in the assay with M14 was 2.8 µM (inactive); with CCRF-CEM it was 1.79 µM (inactive); with NCI-H522, 0.916 µM (active); in the assay on K562, 2.44 µM (inactive); in the assay on HT-29, 2.71 µM (inactive); with ACHN, 2.22 µM (inactive). In addition, the GI50 is 1.77 µM (inactive) with MOLT-4; 1.32 µM (inactive) in the assay with OVCAR-3; 6.32 µM (inactive) in the assay on A498; 5.62 µM (inactive) in the assay on SF-295; 2.11 µM (inactive) with IGROV-1; 1.68 µM (inactive) in the assay with HL-60. For the same molecule, the GI50 in the assay with SR is 1.84 µM (inactive).

Take `O=[N+]([O-])C(=C(NCc1ccccc1)NCc1ccccc1)C(Cl)=C(Cl)Cl`: the GI50 in the assay on MCF7 was 41.1 µM (inactive); in the assay with COLO 205 it was 19.4 µM (inactive); in the assay on MDA-MB-231 it was 29.4 µM (inactive); in the assay on NCI-H226 it was 39.5 µM (inactive); with OVCAR-4, 31.7 µM (inactive); in the assay with M14, 26 µM (inactive). Moreover, the GI50 in the assay with CCRF-CEM is 23.1 µM (inactive); in the assay with NCI-H522, 37 µM (inactive); in the assay with K562 it was 22.3 µM (inactive); with HT-29 it was 39.5 µM (inactive); in the assay with ACHN, 21.6 µM (inactive); in the assay on MOLT-4 it was 23.1 µM (inactive). For the same molecule, the GI50 is 21.6 µM (inactive) with OVCAR-3; 61.7 µM (inactive) in the assay on A498; 24.5 µM (inactive) in the assay with SF-295; 34 µM (inactive) with IGROV-1; 20.2 µM (inactive) with HL-60; 40.6 µM (inactive) in the assay on HCC 2998. For the same molecule, the GI50 in the assay on SR is 23.8 µM (inactive).

Consider `CC(=O)OC12CC[N+]3(C)CCCCC3C1=Nc1ccccc12` (stereo not drawn), for which the GI50 was > 100 µM (inactive) with MCF7; > 100 µM (inactive) in the assay with SK-MEL-2; 61 µM (inactive) with COLO 205; > 100 µM (inactive) in the assay on MDA-MB-231; > 100 µM (inactive) in the assay on NCI-H226; > 100 µM (inactive) with OVCAR-4. Besides, the GI50 in the assay with M14 was > 100 µM (inactive); in the assay with CCRF-CEM, > 100 µM (inactive); with NCI-H522, > 100 µM (inactive); in the assay on K562 it was > 100 µM (inactive); in the assay on HT-29, 63.8 µM (inactive); with ACHN, > 100 µM (inactive). Also, the GI50 is > 100 µM (inactive) in the assay on MOLT-4; > 100 µM (inactive) in the assay on OVCAR-3; 80.2 µM (inactive) in the assay on A498; > 100 µM (inactive) in the assay with SF-295; > 100 µM (inactive) with IGROV-1; > 100 µM (inactive) in the assay with HL-60. Moreover, in the assay with SR, the GI50 is > 100 µM (inactive).

With `CCCCCCCCCCCCCCCCOCC(Cl)CP(=O)(O)OP(=O)(O)OCC1OC(n2cnc3c(N)ncnc32)C(O)C1O` (stereo not drawn), the GI50 in the assay with MCF7, with SK-MEL-2, in the assay with COLO 205, with MDA-MB-231, in the assay on NCI-H226 and with OVCAR-4 was > 100 µM (inactive) in each case. Moreover, the GI50 in the assay on M14, with CCRF-CEM, with NCI-H522, in the assay on K562, in the assay on HT-29 and in the assay on ACHN was > 100 µM (inactive) throughout. Besides, the GI50 in the assay on MOLT-4, in the assay with OVCAR-3, with A498, with IGROV-1, with HL-60 and with HCC 2998 was > 100 µM (inactive) each time. The GI50 with SR was > 100 µM (inactive).

For `CN(C)Cc1cc(C(=O)/C=C/c2ccc(Cl)cc2Cl)cc(CN(C)C)c1O`, the GI50 with MCF7 is 2.33 µM (inactive); in the assay with COLO 205, 1.44 µM (inactive); in the assay on MDA-MB-231 it was 2.11 µM (inactive); in the assay with NCI-H226, 8.57 µM (inactive); with OVCAR-4, 2.22 µM (inactive); with M14, 2.75 µM (inactive). Also, the GI50 in the assay with CCRF-CEM is 2.16 µM (inactive); with NCI-H522, 2.56 µM (inactive); with K562 it was 1.48 µM (inactive); with HT-29, 2.07 µM (inactive); in the assay on ACHN, 2.06 µM (inactive); in the assay with MOLT-4, 1.88 µM (inactive). In addition, the GI50 is 2.99 µM (inactive) with OVCAR-3; 2.4 µM (inactive) in the assay on A498; 3.34 µM (inactive) with SF-295; 2.72 µM (inactive) in the assay with IGROV-1; 1.96 µM (inactive) in the assay with HL-60; 5.89 µM (inactive) with HCC 2998. In the assay on SR, the GI50 is 4.03 µM (inactive).
